Laboratory results from PubChem BioAssay AID1963967 (Molecular Pharmacology Branch, DTP, NCI, 2024).
pIC50: −log10 of the molar value. “And” between values parts separate entries of the source, which are not always exact repeats. Equal values may be shown once.

Test system: 855422-203-R-J1-PDC spheroids with HUVEC/MSC, viability
Assay: Anticancer human tumor 855422-203-R-J1-PDC patient-derived bladder carcinoma cell line growth inhibition [PI3K]
Conditions: for viability, T/C: stronger effect = lower value
Source text: Combinatorial screen of targeted agents with the PI3K inhibitors inavolisib, alpelisib, duvelisib, and copanlisib in multi-cell type tumor spheroids
A high-throughput screen of multi-cell type tumor spheroids was designed to identify active combinations of targeted small molecules and PI3K pathway inhibitors. Complex spheroids include a stromal component modeled by human endothelial cells (HUVEC) and fibroblasts modeled by human mesenchymal stem cells (MSCs). The concentration ranges selected for each drug and investigational agent were based upon clinically achievable concentrations if the clinical Cmax of the agent was known.
Compounds. The drugs and investigational agents: inavolisib (NSC800729), alpelisib (NSC765974), duvelisib (NSC772469), copanlisib (NSC816437), ipatasertib (NSC767898), afuresertib (NSC778305), talazoparib (NSC767125), sapanisertib (NSC764658), selumetinib (NSC741078), tovorafenib (DAY101, NSC766906), vemurafenib (NSC761431), ravoxertinib (NSC781343), sotorasib (NSC818433), MRTX1133 (NSC 836407), abemaciclib (NSC 768073), palbociclib (NSC758247), venetoclax (NSC 766270), SY5609 (NSC837396), enzalutamide (NSC755605), and darolutamide (NSC825331), were obtained from the National Cancer Institute (NCI) Developmental Therapeutics Program Chemical Repository. The FDA-approved anticancer drug set is available from the NCI Developmental Therapeutics Program. […] The stock solutions were prepared in dimethyl sulfoxide (DMSO, Sigma-Aldrich, St. Louis, MO, cat. D2650) at 800-fold the tested concentration and stored at -70 degrees C prior to their use. All drugs and investigational agents were tested over a range starting from a high concentration at or near the clinical Cmax and decreasing in half-log increments. If the clinical Cmax for an agent had not been determined, the highest concentration tested was 10 microM.
Cell Culture. All cells were maintained in an incubator at 37 degrees C and 5% CO2 with 95% humidity. The PDC lines were cultured according to standard operating procedures established by the NCI PDMR (https://pdmr.cancer.gov/sops/default.htm). All PDCs were thawed and cultured in Matrigel-coated flasks prepared with a working solution of 1X Ham's F-12 nutrient mix, without supplementation (Invitrogen, Waltham, MA, cat. 11765054), 100 U/mL penicillin-streptomycin (Invitrogen, cat. 15140122), and 2.5% Matrigel (Corning Inc., Corning, NY, cat. 354248) for the first three passages. The 354836-022-R-J1-PDC, 475296-252-R-J1-PDC, and 997726-040-R-J2-PDC lines were cultured in 6A media, which includes advanced DMEM/F-12 (Thermo Fisher Scientific, cat. 12634028), 10 mM HEPES (Thermo Fisher Scientific, cat. 15630080), 1X GlutaMAX supplement (Thermo Fisher Scientific, cat. 35050061), 0.1 mg/mL primocin (InvivoGen, San Diego, CA, cat. ant-pm-2), 10% defined fetal bovine serum, heat inactivated (HyClone Laboratories Inc., Logan, UT, cat. SH30070.03HI), 50% L-WRN conditioned media (ATCC, cat. CRL-3276), 1.25 mM N-Acetyl-L-cysteine (Sigma-Aldrich, cat. A9165), 10 mM nicotinamide (Sigma-Aldrich, cat. N0636), 1X B-27 supplement (Thermo Fisher Scientific, cat. 17504044), 1X N-2 supplement (Thermo Fisher Scientific, cat. 17502048), and 10 microM Y-27632 dihydrochloride (Tocris Bioscience, Bristol, United Kingdom, cat. 1254). The 624824-186-R-J2-PDC line was cultured in 6C/Colon 1B media, which includes all 6A media components plus 50 ng/mL human EGF recombinant protein (Thermo Fisher Scientific, cat. PHG0311). […]

[1] = compound alone, run of 05/08/2023
[2] = compound alone, run of 05/09/2023
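Also: agents incubated with spheroids for one week before read-out.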
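For viability, T/C in this document: 100% = DMSO vehicle-treated control wells.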

Row | Structure (SMILES) | viability, T/C (compound 0.0316 µM) | viability, T/C (compound 0.1 µM) | viability, T/C (compound 0.316 µM) | viability, T/C (compound 1 µM) | viability, T/C (compound 3.16 µM) | viability, T/C (compound 10 µM) | pIC50 (curve of compound) | viability, T/C (compound 0.000316 µM) | viability, T/C (compound 0.001 µM) | viability, T/C (compound 0.00316 µM) | viability, T/C (compound 0.01 µM) | IC50 (curve of compound) | IC50 [1] | pIC50 [2] | IC50 [2] | viability, T/C (compound 0.00949 µM) | viability, T/C (compound 0.03 µM) | viability, T/C (compound 0.0949 µM) | viability, T/C (compound 0.3 µM) | viability, T/C (compound 0.949 µM) | viability, T/C (compound 3 µM)
1 | C=CC(=O)N1CCN(c2nc(=O)n(-c3c(C)ccnc3C(C)C)c3nc(-c4c(O)cccc4F)c(F)cc23)C(C)C1 (centres undefined) | 109% [middle of 4 runs] | 95.2% [middle of 4 runs] | 117% [middle of 4 runs] | 108% [middle of 4 runs] | 122% [middle of 4 runs] | 121% [middle of 4 runs] | < 5.00 | – | – | – | – | – | – | – | – | – | – | – | – | – | –
2 | CC(=O)c1c(C)c2cnc(Nc3ccc(N4CCNCC4)cn3)nc2n(C2CCCC2)c1=O | 99% [middle of 4 runs] | 83.8% [middle of 4 runs] | – | – | – | – | < 7.00 | 105% (2×) and 96.8% and 106% | 90.8% [middle of 4 runs] | 115% [middle of 4 runs] | 100% (2×) and 98.9% and 98.4% | – | – | – | – | – | – | – | – | – | –
3 | CC(C)NCC(C(=O)N1CCN(c2ncnc3c2C(C)CC3O)CC1)c1ccc(Cl)cc1 (centres undefined) | 93.1% [middle of 4 runs] | 82.9% [middle of 4 runs] | 78.5% [middle of 4 runs] | 51.7% [middle of 4 runs] | 36.8% [middle of 4 runs] | 19.9% (2×) and 18.6% and 19.6% | – | – | – | – | – | 1.25 µM [middle of 4 runs] | – | – | – | – | – | – | – | – | –
4 | CC(C)n1nc(-c2ccc3oc(N)nc3c2)c2c(N)ncnc21 | 80.6% [middle of 4 runs] | 17.8% [middle of 4 runs] | – | – | – | – | – | 113% [middle of 4 runs] | 93.4% [middle of 4 runs] | 113% [middle of 4 runs] | 91.1% [middle of 4 runs] | 55.3 nM [middle of 4 runs] | – | – | – | – | – | – | – | – | –
5 | CC(Cn1ccc(-c2ccc(C#N)c(Cl)c2)n1)NC(=O)c1cc(C(C)O)[nH]n1 (centres undefined) | 108% [middle of 4 runs] | 96.9% [middle of 4 runs] | 110% [middle of 4 runs] | 93.5% [middle of 4 runs] | 97.2% [middle of 4 runs] | 86.2% [middle of 4 runs] | < 5.00 | – | – | – | – | – | – | – | – | – | – | – | – | – | –
6 | CC(Nc1ccc2c(c1)OCCn1cc(N3C(=O)OCC3C(F)F)nc1-2)C(N)=O (centres undefined) | 98.5% [middle of 8 runs] | 76.7% [middle of 8 runs] | 50.6% [middle of 8 runs] | 35.6% [middle of 8 runs] | – | – | – | – | – | 107% [middle of 8 runs] | 104% [middle of 8 runs] | – | 300 nM [middle of 8 runs] | – | – | – | – | – | – | – | –
7 | CC(Nc1ncnc2nc[nH]c12)c1cc2cccc(Cl)c2c(=O)n1-c1ccccc1 (centres undefined) | 107% [middle of 8 runs] | 108% [middle of 8 runs] | 115% [middle of 8 runs] | 107% [middle of 8 runs] | 98.8% [middle of 8 runs] | 86.2% [middle of 8 runs] | – | – | – | – | – | – | – | < 5.00 | – | – | – | – | – | – | –
8 | CC1(C)CCC(CN2CCN(c3ccc(C(=O)NS(=O)(=O)c4ccc(NCC5CCOCC5)c([N+](=O)[O-])c4)c(Oc4cnc5[nH]ccc5c4)c3)CC2)=C(c2ccc(Cl)cc2)C1 | 107% [middle of 4 runs] | 92.7% [middle of 4 runs] | 118% [middle of 4 runs] | 102% and 95.7% and 103% (2×) | – | 2.29% [middle of 4 runs] | – | – | – | – | – | 4.81 µM [middle of 4 runs] | – | – | – | – | – | – | – | – | –
9 | CC1(C)CCC(Nc2ncc(C(F)(F)F)c(-c3c[nH]c4c(P(C)(C)=O)c(C#N)ccc34)n2)CN1 (centres undefined) | 29.6% [middle of 4 runs] | 25% [middle of 4 runs] | 27.7% [middle of 4 runs] | 30.7% [middle of 4 runs] | 28.9% [middle of 4 runs] | 5.48% [middle of 4 runs] | > 7.50 | – | – | – | – | – | – | – | – | – | – | – | – | – | –
10 | CCN1CCN(Cc2ccc(Nc3ncc(F)c(-c4cc(F)c5nc(C)n(C(C)C)c5c4)n3)nc2)CC1 | 107% [middle of 4 runs] | 83.3% [middle of 4 runs] | 71.9% and 69.7% (2×) and 83.9% | 60.2% [middle of 4 runs] | – | – | < 6.00 | – | – | 111% [middle of 4 runs] | – | – | – | – | – | – | – | – | – | – | –
11 | CNC(=O)c1ccc(N2C(=S)N(c3ccc(C#N)c(C(F)(F)F)c3)C(=O)C2(C)C)cc1F | 110% [middle of 4 runs] | 99.4% [middle of 4 runs] | 106% [middle of 4 runs] | 84.8% [middle of 4 runs] | 79.4% [middle of 4 runs] | 66.9% [middle of 4 runs] | < 5.00 | – | – | – | – | – | – | – | – | – | – | – | – | – | –
12 | COc1c(OCCCN2CCOCC2)ccc2c3n(c(=NC(=O)c4cnc(N)nc4)nc12)CCN3 | 71.8% [middle of 8 runs] | 30.5% [middle of 8 runs] | 9.42% [middle of 8 runs] | 4.6% [middle of 8 runs] | – | – | – | – | – | 100% [middle of 8 runs] | 92% [middle of 8 runs] | – | – | – | 58.2 nM [middle of 8 runs] | – | – | – | – | – | –
13 | C[C@@H](NC(=O)c1ncnc(N)c1Cl)c1ncc(C(=O)Nc2cc(C(F)(F)F)c(Cl)cn2)s1 | 107% [middle of 4 runs] | 99.5% [middle of 4 runs] | 118% [middle of 4 runs] | – | 122% [middle of 4 runs] | 120% [middle of 4 runs] | < 5.00 | – | – | – | – | – | – | – | – | – | – | – | – | – | –
14 | Cc1nc(NC(=O)N2CCCC2C(N)=O)sc1-c1ccnc(C(C)(C)C(F)(F)F)c1 (centres undefined) | 107% [middle of 8 runs] | – | – | 75.8% [middle of 8 runs] | 43% [middle of 8 runs] | 22.2% [middle of 8 runs] | – | – | – | – | – | – | 2.53 µM [middle of 8 runs] | – | – | – | – | – | – | – | –
15 | Cn1cnc2c(F)c(Nc3ccc(Br)cc3Cl)c(C(=O)NOCCO)cc21 | – | – | – | – | – | – | – | – | – | – | – | 2.81 µM [middle of 4 runs] | – | – | – | 100% [middle of 4 runs] | 94.8% [middle of 4 runs] | 101% [middle of 4 runs] | 88% [middle of 4 runs] | 87.5% [middle of 4 runs] | 47% [middle of 4 runs]
16 | Cn1nccc1Nc1nccc(-c2ccn(C(CO)c3ccc(Cl)c(F)c3)c(=O)c2)n1 (centres undefined) | 112% [middle of 4 runs] | 99.8% [middle of 4 runs] | 108% [middle of 4 runs] | 90.7% [middle of 4 runs] | 93.1% [middle of 4 runs] | 44% [middle of 4 runs] | – | – | – | – | – | 8.75 µM [middle of 4 runs] | – | – | – | – | – | – | – | – | –
17 | Cn1ncnc1[C@H]1c2n[nH]c(=O)c3cc(F)cc(c23)N[C@@H]1c1ccc(F)cc1 | 110% [middle of 4 runs] | 107% and 100% (3×) | – | – | – | – | < 7.00 | 113% [middle of 4 runs] | 107% [middle of 4 runs] | 104% (2×) and 108% and 109% | 101% [middle of 4 runs] | – | – | – | – | – | – | – | – | – | –
